Experimental data reported in patent US10119168B2, “Methods for the treatment of kidney fibrosis” (priority 2014, dated 2018).

System: mouse kidney
Assay: RNA-seq of kidney gene expression over time in FA nephropathy progression (Table 1)
Format: in vivo
Excerpt: Identification of Candidate Genes for Biomarkers of Kidney Fibrosis Through RNA-Seq. […] To select genes that are indicative of fibrosis candidates were considered from this later group that had robust upregulation (>5-fold with >100 read counts at peak) over time as fibrosis progresses. Another important criteria was the location of the protein product of the gene, either in extracellular matrix or transmembrane, to increase the chance of detecting it in the urine and use it as a biomarker(11).
(§1) RNA samples (n=3 mice/time point) were sequenced at the Bioplymers Facility at the Harvard Medical School. Libraries were prepared from 10 ng total RNA per sample using the IntegenX Apollo 324 system and NuGEN SPIA reagents. Libraries were multiplexed in groups of three per lane of a flowcell and 50 cycle, paired-end sequencing was performed on an Illumina HiSeq2000 instrument. Illumina sequence quality was surveyed with FastQC (available on the world wide web at bioinformatics.babraham.ac.uk/projects/fastqc/) to ensure suitability of library generation and sequencing for further analysis. Adapters and lower quality bases were trimmed with Cutadapt (available on the world wide web at code.google.com/p/cutadapt/), using a Phred quality cutoff of 20, and reassessed with FastQC. Trimmed reads were aligned to the Ensembl NCBIM37 Mus musculus genome build with TopHat2. Aligned reads were summarized at the gene level against the Illumina iGenomes (available on the world wide web at tophat.cbcb.umd.edu/igenomes.html) NCBIM37 Mus musculus gene annotations using HTSeq (available on the world wide web at huber.embl.de/users/anders/HTSeq/doc/overview.html). […] The full dataset is available in the NCBI GEO database with the accession number GSE65267. Raw data is accessible on the world wide web at ncbi.nlm.nih.gov/geo/query/acc.cgi?acc=GSE65267.
Mice were sacrificed at 1, 2, 3, 7 and 14 days following administration. […] All mice were sacrificed at 14 days.
as §1, with “The quantity and quality of mRNA” for “RNA samples (n=3 mice/time point)”, “assayed on an Agilent 2200 TapeStation instrument and by SYBR qPCR assay.” for “sequenced at the Bioplymers Facility at the Harvard Medical School.”, “(https://code.google.com/p/cutadapt/),” for “(available on the world wide web at code.google.com/p/cutadapt/),”

Compound: Nc1nc2ncc(CNc3ccc(C(=O)N[C@@H](CCC(=O)O)C(=O)O)cc3)nc2c(=O)[nH]1 [FA, folic acid]
- 7SK RNA mean fold change from normal (Day 1): 0.04 fold
- 2310042D19Rik mean fold change from normal (Day 1): 0.09 fold
- 4930533I22Rik mean fold change from normal (Day 1): 0.11 fold
- 4933417A18Rik mean fold change from normal (Day 1): 0.04 fold
- 8430408G22Rik mean fold change from normal (Day 1): 0.09 fold
- 9030619P08Rik mean fold change from normal (Day 1): 0.01 fold
- Slc2a5 mean fold change from normal (Day 1): 0.07 fold
- Slc4a1 mean fold change from normal (Day 1): 0.11 fold
- Slc5a4a mean fold change from normal (Day 1): 0.02 fold
- Slc5a12 mean fold change from normal (Day 1): 0.06 fold
- Slc6a12 mean fold change from normal (Day 1): 0.02 fold
- Slc7a13 mean fold change from normal (Day 1): 0.02 fold
- Slc28a1 mean fold change from normal (Day 1): 0.02 fold
- Slc34a1 mean fold change from normal (Day 1): 0.05 fold
- Slc34a2 mean fold change from normal (Day 1): 11.81 fold
- Slc34a3 mean fold change from normal (Day 1): 0.05 fold
- Slc46a3 mean fold change from normal (Day 1): 0.11 fold
- Slco1a1 mean fold change from normal (Day 1): 0.18 fold
- Smoc2 mean fold change from normal (Day 1): 0.06 fold
- Smpdl3b mean fold change from normal (Day 1): 222.02 fold
- Snx31 mean fold change from normal (Day 1): 0.06 fold
- Socs1 mean fold change from normal (Day 1): 77.54 fold
- Sox4 mean fold change from normal (Day 1): 12.86 fold
- Sox9 mean fold change from normal (Day 1): 24.10 fold
- Spaca7 mean fold change from normal (Day 1): 27.30 fold
- Spink6 mean fold change from normal (Day 1): 46.74 fold
- Spp1 mean fold change from normal (Day 1): 113.22 fold
- Spred3 mean fold change from normal (Day 1): 6.01 fold
- Spsb1 mean fold change from normal (Day 1): 11.68 fold
- Spt1c3 mean fold change from normal (Day 1): 0.07 fold
- St8sia2 mean fold change from normal (Day 1): 3.07 fold
- Stil mean fold change from normal (Day 1): 13.84 fold
- Stk32a mean fold change from normal (Day 1): 10.38 fold
- Stra6 mean fold change from normal (Day 1): 1.19 fold
- Susd2 mean fold change from normal (Day 1): 0.18 fold
- Sycn mean fold change from normal (Day 1): 0.07 fold
- Synpr mean fold change from normal (Day 1): 0.23 fold
- Sytl2 mean fold change from normal (Day 1): 3.75 fold
- Tagln2 mean fold change from normal (Day 1): 8.92 fold
- Tbx10 mean fold change from normal (Day 1): 0.06 fold
- Timd2 mean fold change from normal (Day 1): 7.27 fold
- Timp1 mean fold change from normal (Day 1): 175.24 fold
- Tlr2 mean fold change from normal (Day 1): 6.43 fold
- Tmem25 mean fold change from normal (Day 1): 0.11 fold
- Tmem26 mean fold change from normal (Day 1): 0.10 fold
- Tmem207 mean fold change from normal (Day 1): 0.01 fold
- Tmsb10 mean fold change from normal (Day 1): 19.04 fold
- Tnc mean fold change from normal (Day 1): 13.27 fold
- Tnfaip3 mean fold change from normal (Day 1): 1.97 fold
- Tnfrsf23 mean fold change from normal (Day 1): 18.16 fold
- Top2a mean fold change from normal (Day 1): 5.38 fold
- Tpx2 mean fold change from normal (Day 1): 3.87 fold
- Tril mean fold change from normal (Day 1): 0.07 fold
- Tsc22d1 mean fold change from normal (Day 1): 8.11 fold
- Ttc36 mean fold change from normal (Day 1): 0.04 fold
- Ttr mean fold change from normal (Day 1): 0.05 fold
- Tyrobp mean fold change from normal (Day 1): 1.26 fold
- Ugt3a1 mean fold change from normal (Day 1): 0.18 fold
- Uhrf1 mean fold change from normal (Day 1): 16.90 fold
- Upp2 mean fold change from normal (Day 1): 0.25 fold
- Vcam1 mean fold change from normal (Day 1): 13.66 fold
- Vill mean fold change from normal (Day 1): 0.09 fold
- Vmn1r18 mean fold change from normal (Day 1): 0.02 fold
- Vmn1r19 mean fold change from normal (Day 1): 0.03 fold
- Vmn1r20 mean fold change from normal (Day 1): 0.02 fold
- Vmn1r-ps11 mean fold change from normal (Day 1): 0.02 fold
- Vstm2a mean fold change from normal (Day 1): 0.04 fold
- Vtcn1 mean fold change from normal (Day 1): 64.93 fold
- Vwce mean fold change from normal (Day 1): 0.06 fold
- Wfdc15b mean fold change from normal (Day 1): 0.02 fold
- Ybx2 mean fold change from normal (Day 1): 0.08 fold
- 7SK RNA mean fold change from normal (Day 2): 0.04 fold
- 2310042D19Rik mean fold change from normal (Day 2): 0.08 fold
- 4930533I22Rik mean fold change from normal (Day 2): 0.09 fold
- 4933417A18Rik mean fold change from normal (Day 2): 0.07 fold
- 8430408G22Rik mean fold change from normal (Day 2): 0.23 fold
- 9030619P08Rik mean fold change from normal (Day 2): 0.05 fold
- Slc2a5 mean fold change from normal (Day 2): 0.09 fold
- Slc4a1 mean fold change from normal (Day 2): 0.09 fold
- Slc5a4a mean fold change from normal (Day 2): 0.37 fold
- Slc5a12 mean fold change from normal (Day 2): 0.34 fold
- Slc6a12 mean fold change from normal (Day 2): 0.13 fold
- Slc7a13 mean fold change from normal (Day 2): 0.02 fold
- Slc28a1 mean fold change from normal (Day 2): 0.19 fold
- Slc34a1 mean fold change from normal (Day 2): 0.11 fold
- Slc34a2 mean fold change from normal (Day 2): 16.20 fold
- Slc34a3 mean fold change from normal (Day 2): 0.05 fold
- Slc46a3 mean fold change from normal (Day 2): 0.36 fold
- Slco1a1 mean fold change from normal (Day 2): 0.16 fold
- Smoc2 mean fold change from normal (Day 2): 0.06 fold
- Smpdl3b mean fold change from normal (Day 2): 124.22 fold
- Snx31 mean fold change from normal (Day 2): 0.05 fold
- Socs1 mean fold change from normal (Day 2): 53.23 fold
- Sox4 mean fold change from normal (Day 2): 13.93 fold
- Sox9 mean fold change from normal (Day 2): 49.89 fold
- Spaca7 mean fold change from normal (Day 2): 74.80 fold
- Spink6 mean fold change from normal (Day 2): 13.93 fold
- Spp1 mean fold change from normal (Day 2): 174.85 fold
- Spred3 mean fold change from normal (Day 2): 11.03 fold
- Spsb1 mean fold change from normal (Day 2): 13.04 fold
- Spt1c3 mean fold change from normal (Day 2): 0.11 fold
- St8sia2 mean fold change from normal (Day 2): 2.10 fold
- Stil mean fold change from normal (Day 2): 32.74 fold
- Stk32a mean fold change from normal (Day 2): 7.59 fold
- Stra6 mean fold change from normal (Day 2): 1.95 fold
- Susd2 mean fold change from normal (Day 2): 0.07 fold
- Sycn mean fold change from normal (Day 2): 0.07 fold
- Synpr mean fold change from normal (Day 2): 0.02 fold
- Sytl2 mean fold change from normal (Day 2): 5.53 fold
- Tagln2 mean fold change from normal (Day 2): 6.40 fold
- Tbx10 mean fold change from normal (Day 2): 0.10 fold
- Timd2 mean fold change from normal (Day 2): 2.97 fold
- Timp1 mean fold change from normal (Day 2): 194.76 fold
- Tlr2 mean fold change from normal (Day 2): 12.76 fold
- Tmem25 mean fold change from normal (Day 2): 0.34 fold
- Tmem26 mean fold change from normal (Day 2): 0.07 fold
- Tmem207 mean fold change from normal (Day 2): 0.02 fold
- Tmsb10 mean fold change from normal (Day 2): 18.72 fold
- Tnc mean fold change from normal (Day 2): 9.63 fold
- Tnfaip3 mean fold change from normal (Day 2): 3.85 fold
- Tnfrsf23 mean fold change from normal (Day 2): 7.62 fold
- Top2a mean fold change from normal (Day 2): 15.75 fold
- Tpx2 mean fold change from normal (Day 2): 10.97 fold
- Tril mean fold change from normal (Day 2): 0.43 fold
- Tsc22d1 mean fold change from normal (Day 2): 6.92 fold
- Ttc36 mean fold change from normal (Day 2): 0.10 fold
- Ttr mean fold change from normal (Day 2): 0.04 fold
- Tyrobp mean fold change from normal (Day 2): 1.65 fold
- Ugt3a1 mean fold change from normal (Day 2): 0.07 fold
- Uhrf1 mean fold change from normal (Day 2): 31.75 fold
- Upp2 mean fold change from normal (Day 2): 0.11 fold
- Vcam1 mean fold change from normal (Day 2): 30.80 fold
- Vill mean fold change from normal (Day 2): 0.28 fold
- Vmn1r18 mean fold change from normal (Day 2): 0.01 fold
- Vmn1r19 mean fold change from normal (Day 2): 0.02 fold
- Vmn1r20 mean fold change from normal (Day 2): 0.34 fold
- Vmn1r-ps11 mean fold change from normal (Day 2): 0.03 fold
- Vstm2a mean fold change from normal (Day 2): 0.05 fold
- Vtcn1 mean fold change from normal (Day 2): 44.16 fold
- Vwce mean fold change from normal (Day 2): 0.08 fold
- Wfdc15b mean fold change from normal (Day 2): 0.05 fold
- Ybx2 mean fold change from normal (Day 2): 0.12 fold
- 7SK RNA mean fold change from normal (Day 3): 0.08 fold
- 2310042D19Rik mean fold change from normal (Day 3): 0.47 fold
- 4930533I22Rik mean fold change from normal (Day 3): 0.22 fold
- 4933417A18Rik mean fold change from normal (Day 3): 0.49 fold
- 8430408G22Rik mean fold change from normal (Day 3): 0.34 fold
- 9030619P08Rik mean fold change from normal (Day 3): 0.02 fold
- Slc2a5 mean fold change from normal (Day 3): 0.21 fold
- Slc4a1 mean fold change from normal (Day 3): 0.18 fold
- Slc5a4a mean fold change from normal (Day 3): 0.51 fold
- Slc5a12 mean fold change from normal (Day 3): 0.38 fold
- Slc6a12 mean fold change from normal (Day 3): 0.26 fold
- Slc7a13 mean fold change from normal (Day 3): 0.11 fold
- Slc28a1 mean fold change from normal (Day 3): 0.18 fold
- Slc34a1 mean fold change from normal (Day 3): 0.33 fold
- Slc34a2 mean fold change from normal (Day 3): 7.59 fold
- Slc34a3 mean fold change from normal (Day 3): 0.09 fold
- Slc46a3 mean fold change from normal (Day 3): 0.57 fold
- Slco1a1 mean fold change from normal (Day 3): 0.19 fold
- Smoc2 mean fold change from normal (Day 3): 1.83 fold
- Smpdl3b mean fold change from normal (Day 3): 111.13 fold
- Snx31 mean fold change from normal (Day 3): 0.07 fold
- Socs1 mean fold change from normal (Day 3): 43.48 fold
- Sox4 mean fold change from normal (Day 3): 11.69 fold
- Sox9 mean fold change from normal (Day 3): 52.43 fold
- Spaca7 mean fold change from normal (Day 3): 18.32 fold
- Spink6 mean fold change from normal (Day 3): 9.16 fold
- Spp1 mean fold change from normal (Day 3): 63.01 fold
- Spred3 mean fold change from normal (Day 3): 8.99 fold
- Spsb1 mean fold change from normal (Day 3): 4.64 fold
- Spt1c3 mean fold change from normal (Day 3): 1.02 fold
- St8sia2 mean fold change from normal (Day 3): 10.17 fold
- Stil mean fold change from normal (Day 3): 10.68 fold
- Stk32a mean fold change from normal (Day 3): 5.33 fold
- Stra6 mean fold change from normal (Day 3): 8.56 fold
- Susd2 mean fold change from normal (Day 3): 0.32 fold
